Assay [1] has as its system aged wild type (WT; C57BL/6) mice. Description: Iba-1 histology in hippocampus. The assay is classed as in vivo, mouse. As to conditions: 4 weeks of dosing. As to the method:
Brains were collected following saline perfusion and separated by mid-sagittal slice with one-half drop fixed in freshly prepared 4% PFA. PFA was changed to 30% sucrose 24-48 hours later. A second change to 30% sucrose occurred 24 hours later. Brain tissue was sectioned or lysed and analyzed for GFAP, AQP4, or IBA1 by standard histological methods. Images were acquired using a confocal microscope or Axioscan slide scanner.
Three independent cohorts of aged wild type (WT; C57BL/6) mice between twenty to twenty-two months of age (20-22 mo) were homogenized into two (2) groups by body weight, total distance travelled in the open field test, and average velocity in the open field test. Group 1 was administered vehicle control PO daily. Group 2 was administered 10 mg/kg of the LTA4H inhibitor Compound 1 PO daily. Both groups were dosed for either 10 days or 4 weeks daily. Behavioral assays were run during the last week of dosing and animals were sacrificed at the end of the study for histological and molecular assays.

The subject of assay [2] is purified endothelial cells from the brains of aged C57BL/6 mice. Description: Microbulk qPCR of endothelial genes. The conditions noted are these: 1 month bid P.O., 1 mg/kg Compound 1 or 2.5 mg/kg SC57461A. Format: in vivo, mouse. As to the method: Downregulation of the detrimental genes Bsg, Gbp4, and CXCL12 in purified endothelial cells from the brains of mice treated with LTA4H inhibitors Compound 1 or SC57461A were compared to those of vehicle treated mice. Gene expression was measured by qPCR from 500 sorted endothelial cells and was normalized to GAPDH control.
Aged C57BL/6 mice (21 months of age) were treated for 1 month bid P.O. with vehicle, 1 mg/kg Compound 1, or 2.5 mg/kg SC57461A (n=3 mice per treatment group). One cortical cap (cortex and hippocampus) from each mouse was isolated and cells were dissociated using Miltenyi Neutral Dissociation Kit (#130-092-628). Cells were sorted using Sony Multi-Application Cell Sorter MA900 into clean, RNAase free 200 uL PCR strip tube with 5 uL RNAlater at a concentration of 500 cells per tube. RNA was isolated follow kit protocol for Qiagen RNeasy Micro Kit (#74004). cDNA was synthesized using SuperScript III Kit Protocol and qPCR assays were run using TaqMan or SYBR green primers.
Downregulation of the beneficial gene, Plat, in purified endothelial cells from the brains of mice treated with LTA4H inhibitors Compound 1 or SC57461A were compared to those of vehicle treated mice. Gene expression was measured by qPCR from 500 sorted endothelial cells and was normalized to GAPDH control.
(Real-time PCR tracks product formation cycle by cycle.)

For assay [3], the system named is hippocampal neurons of aged C57BL/6 mice. As to the kind of experiment: Single cell RNA sequencing of NeuN+ hippocampal nuclei (CA1, DG). The assay is classed as in vivo, mouse. As to the method: Aged C57BL/6 mice (21 months of age) were treated for 1 month bid po with vehicle, 1 mg/kg Compound 1, or 2.5 mg/kg SC57461A (n=3 mice per treatment group). NucSeq For Mouse Brain Tissue protocol from 10× Genomics was used to isolate mouse hippocampus nuclei. Approximately 65 mg of brain tissue were used per treatment. Nonidet P40 was used to lyse cell walls and isolated nuclei were stained with Draq5 and NeuN antibodies for FACS sorting. Approximately 5,000 nuclei were collected for each sample. Eight samples were collected for each treatment for a total of 40,000 nuclei per treatment. These samples were prepped for sequencing using the 10× Genomics Chromium Next GEM kit.
GO terms are generated using the g:Profiler Web server (https://bitt.cs.ut.ee/gprofiler) to analyze differential regulated gene lists. Reported are the top 20 gene ontology (GO terms) terms from the biological process category, sorted by significance as determined by P-value. This list was filtered to report significant GO terms that include less than 1000 genes.

The subject of assay [4] is Male C57BL/6 mice aged 20-21 months. As to the kind of experiment: Example 15: gene expression and histology, Compound 1 versus SC-57461A. The conditions noted are these: Compound 1 1 mg/kg, SC-57461A 2.5 mg/kg PO bid one month. The assay is classed as in vivo, mouse. As to the method: Male C57BL/6 mice aged 20-21 months are treated with Vehicle, Compound 1, or SC-57461A commercially available LTA4H inhibitor. The mice are dosed with Compound 1 at 1 mg/kg or SC-57461A at 2.5 mg/kg PO bid for one month. Mice are anesthetized and blood and tissues are collected for further analysis. Blood is collected via cardiac puncture in syringes pre-filled with Heparin. Brains are collected following ACSF perfusion and processed for single cell RNA sequencing of either labeled endothelial cells (experiment 1) or NeuN-positive neuronal nuclei (experiment 2). In a+ separate cohort of mice, brains are collected following 4% PFA perfusion for histological endpoints (experiment 3).

A further assay addresses LTA4H hydrolase activity (Mus musculus (Mouse), UniProt P24527). As to the kind of experiment: Pharmacodynamic analysis of plasma LTB4 after a single dose. Format: in vivo. As to the method:
Whole blood was collected by cardiac puncture using heparin as an anti-coagulant. 160 μL of whole blood was collected in duplicate for each mouse and incubated for 15 minutes in 37° C./5% CO2. During this time a 0.1 mM calcimycin stock was made by diluting 10 mM calcimycin (Sigma C7522) formulated in DMSO into PBS. Control solution was made by diluting the same volume of DMSO in PBS. Both solutions were sonicated for 10 minutes in a 37° C. water bath. 40 μL of 0.1 mM calcimycin (stimulated) or control solution (unstimulated) was added to each well of whole blood and incubated at 37° C./5% CO2 for 30 minutes. Whole blood was spun for 10 minutes at 1000×g to separate out plasma. LTB4 levels were detected by running an ELISA on the collected stimulated and unstimulated plasma diluted 1:10 (Enzo Life Sciences, ADI-901-068). The ELISA plates were read on a BMG LABTECH CLARIOstar plate reader at 405 nm.

For another assay, the system named is aged mice. As to the kind of experiment: CA1 synapse density by histology. The assay is classed as in vivo, mouse. The conditions noted are these: preliminary data, pre- and post-synaptic protein staining.
[5] abbreviates: 1 month bid po, 1 mg/kg Compound 1 or 2.5 mg/kg SC57461A.

Sequence of LTA4H hydrolase activity (P24527 whole entry): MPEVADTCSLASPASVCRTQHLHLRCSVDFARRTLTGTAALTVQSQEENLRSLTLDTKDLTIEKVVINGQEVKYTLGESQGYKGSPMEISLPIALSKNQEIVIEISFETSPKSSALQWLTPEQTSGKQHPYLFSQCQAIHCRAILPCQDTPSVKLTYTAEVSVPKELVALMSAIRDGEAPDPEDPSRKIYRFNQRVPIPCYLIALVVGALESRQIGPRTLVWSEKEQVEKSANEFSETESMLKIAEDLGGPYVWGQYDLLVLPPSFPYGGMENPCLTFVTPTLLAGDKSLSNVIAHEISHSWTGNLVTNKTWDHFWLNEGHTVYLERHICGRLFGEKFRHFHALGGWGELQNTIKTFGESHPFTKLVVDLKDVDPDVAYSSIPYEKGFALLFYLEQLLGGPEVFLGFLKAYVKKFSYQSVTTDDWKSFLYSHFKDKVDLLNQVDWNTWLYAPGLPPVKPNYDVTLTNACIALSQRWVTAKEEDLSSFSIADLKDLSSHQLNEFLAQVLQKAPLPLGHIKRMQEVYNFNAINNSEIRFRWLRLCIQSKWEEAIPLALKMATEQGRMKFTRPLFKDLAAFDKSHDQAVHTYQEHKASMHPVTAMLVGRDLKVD

As for `O=C(O)C1CCN(Cc2ccc([C@H]3COc4ccccc4O3)cc2)CC1` [Example 1, 1-{4-[(2S)-2,3-dihydro-1,4-benzodioxin-2-yl]benzyl}piperidine-4-carboxylic acid], the “Iba-1 percent thresholded area in the hippocampus” value in assay [1] is “reduction in Iba-1 percent thresholded area”. Also, in assay [2], the Bsg gene expression result is reported as “down regulation of Bsg gene expression”, the CXCL12 gene expression result is on record as “down regulation of CXCL12 gene expression”, the Gpb4 gene expression entry was “down regulation of Gpb4 gene expression” and the Plat gene expression result is listed as “up regulation of Plat gene expression”. Besides, in assay [3] (setting [5]), the “CA1 neuronal gene changes” value is on record as “many significant gene changes to neurons in the CA1 region of the hippocampus”, the “DG neuronal gene changes” value is “many significant gene changes to neurons in the DG region of the hippocampus”, the “Dcc gene expression in the dentate gyrus” value was “upregulation of Dcc gene expression” and the “Spock3 gene expression in the dentate gyrus” value was “upregulation of Spock3 gene expression”. In assay [3] (long-term treatment), the “Biological Process GO terms, CA1 hippocampal neurons” value is “changes to “synaptic signaling” and “synaptic organization””; the “Biological Process GO terms, DG hippocampal neurons” value is on record as “changes to synapses”. In assay [4], the “endothelial gene expression in brain compared to SC-57461A” value was “more robust change in endothelial gene expression”; the “histology of endothelial cells and neurons compared to SC-57461A” value is “more robust changes in histology”; the “neuronal gene expression in brain compared to SC-57461A” value was “more robust change in neuronal gene expression”. The “calcimycin stimulated plasma LTB4 levels” value on LTA4H hydrolase activity (single 1 mg/kg oral dose, multiple timepoints, C57BL/6 mice) is “reduction in the pharmacodynamic readout of calcimycin stimulated plasma LTB4 levels”. For the same compound, the “plasma LTB4 levels, dose response” value on LTA4H hydrolase activity (single dose 0.3, 0.1 or 0.03 mg/kg, 6 hours post dosing) is “dose response in the pharmacodynamic readout of plasma LTB4 levels”. Further, the “synapse density in the CA1 region of the hippocampus” value in the assay on aged mice is on record as “trends towards increasing synapse density”.

The record behind these values is patent publication US11957671B2, “Benzodioxane modulators of leukotriene A4 hydrolase (LTA4H) for prevention and treatment of aging-associated diseases” (Alkahest, Inc., priority 2021, dated 2024).
